One experiment concerns TNF-α protein. Description: ELISA, TNF-α protein after CCI injury. It counts as in vivo, rat. Particulars: single-dose 30 mg kg^-1 i.p.; ipsilateral cortex, 1 day post-injury; P<0.05. The method, then: A previously described CCI injury procedure was utilized (Chen et al., 2003). Male Sprague-Dawley rats, which have body weight of 250-300 g, were anaesthetized with sodium pentobarbital (i.p.; 50 mgkg^−1; Rhone Merieux, Harlow, UK) and placed in a stereotaxic frame. A 5-mm craniotomy was performed over the left parietal cortex, centered on the coronal suture and 3 mm lateral to the sagittal suture. Considerable care was taken to avoid injury to the underlying dura. Injury was made using a pneumatic piston with a rounded metal tip (2.5 mm diameter) that was angled 22.5° C. to the vertical so that the tip was perpendicular with the brain surface at the centre of the craniotomy. A velocity of 4 ms^−1 and a deformation depth 2 mm below the dura were used. […] Body temperature was monitored throughout the surgery by a rectal probe; temperature was maintained at 37.0±0.5° C. using a heated pad. […]
Single-dose baicalein (30 mg kg^−1) or a corresponding volume of vehicle was administered i.p. immediately following injury. […] Testing after injury was as follows: (1) real-time quantitative RT-PCR analysis for TNF-α, IL-1β and IL-6 mRNA expression at 6 h post-injury (n=7 for each group); (2) FluoroJade B (FJB) staining, TNF-α, IL-1β and IL-6 immunohistochemistry, as well as ELISA at 24 h post-injury to assess degenerative neurons and to determine cytokine expression (n=7 for each group). […]
Background: ELISA stands for enzyme-linked immunosorbent assay.

Another experiment relates to TNF-α mRNA. The experiment in a line: Real-time quantitative RT-PCR, TNF-α mRNA after CCI injury. It counts as in vivo, rat. Particulars: single-dose 30 mg kg^-1 i.p.; ipsilateral cortex, 6 h after injury; P<0.05. The method, then:
A previously described CCI injury procedure was utilized (Chen et al., 2003). Male Sprague-Dawley rats, which have body weight of 250-300 g, were anaesthetized with sodium pentobarbital (i.p.; 50 mgkg^−1; Rhone Merieux, Harlow, UK) and placed in a stereotaxic frame. A 5-mm craniotomy was performed over the left parietal cortex, centered on the coronal suture and 3 mm lateral to the sagittal suture. Considerable care was taken to avoid injury to the underlying dura. Injury was made using a pneumatic piston with a rounded metal tip (2.5 mm diameter) that was angled 22.5° C. to the vertical so that the tip was perpendicular with the brain surface at the centre of the craniotomy. A velocity of 4 ms^−1 and a deformation depth 2 mm below the dura were used. […] Body temperature was monitored throughout the surgery by a rectal probe; temperature was maintained at 37.0±0.5° C. using a heated pad. […] Testing after injury was as follows: (1) real-time quantitative RT-PCR analysis for TNF-α, IL-1β and IL-6 mRNA expression at 6 h post-injury (n=7 for each group); (2) FluoroJade B (FJB) staining, TNF-α, IL-1β and IL-6 immunohistochemistry, as well as ELISA at 24 h post-injury to assess degenerative neurons and to determine cytokine expression (n=7 for each group). […] Approximately 50 mg tissue was collected from the ipsilateral (injured) hemisphere and processed for real-time quantitative RT-PCR. […]

In the case of `O=c1cc(-c2ccccc2)oc2cc(O)c(O)c(O)c12` [baicalein], the “TNF-α protein concentration, % of concentration in vehicle-treated rats” value with TNF-α protein is 54%. In addition, in the experiment with TNF-α mRNA, the “TNF-α mRNA level, % of level in vehicle-treated injured rats” value was 49%.
